Measurements published in ChEMBL document CHEMBL1158531, “DNA strand cleaving properties and hypoxia-selective cytotoxicity of 7-chloro-2-thienylcarbonyl-3-trifluoromethylquinoxaline 1,4-dioxide” (2010).
One block for each compound: values may come before it. The source made the active and inactive calls. The rule behind the calls is not given here.

What was measured:
Nucleic Acid [1] = assay: Induction of DNA cleavage in supercoiled pGL2 DNA assessed as open circular DNA form-2 under hypoxic condition with NADPH:cytochrome P450 enzyme system at 25 uM after 16 hrs by agarose gel electrophoresis in presence of radical scavenging agent mannitol; type: nucleic-acid assay
Nucleic Acid [2] = assay: Induction of DNA cleavage in supercoiled pGL2 DNA assessed as open circular DNA form-2 under hypoxic condition with NADPH:cytochrome P450 enzyme system at 25 uM after 16 hrs by agarose gel electrophoresis in presence of radical scavenging agent t-butanol; type: nucleic-acid assay
V79 [3] = assay: Hypoxic cytotoxicity ratio, concentration required to kill 99% chinese hamster V79 cells under aerobic condition to hypoxic condition; type: functional, Cricetulus griseus
Nucleic Acid [4] = assay: Induction of DNA cleavage in supercoiled pGL2 DNA assessed as open circular DNA form-2 under hypoxic condition with NADPH:cytochrome P450 enzyme system at 5 to 25 uM after 16 hrs by agarose gel electrophoresis; type: nucleic-acid assay
Nucleic Acid [5] = assay: Induction of DNA cleavage in supercoiled pGL2 DNA assessed as open circular DNA form-2 under hypoxic condition with NADPH:cytochrome P450 enzyme system at 25 uM after 16 hrs by agarose gel electrophoresis in presence of radical scavenging agent methanol; type: nucleic-acid assay
Nucleic Acid [6] = assay: Induction of DNA cleavage in supercoiled pGL2 DNA assessed as open circular DNA form-2 under hypoxic condition with xanthine/xanthine oxidase enzyme system at 20 uM after 16 hrs by agarose gel electrophoresis; type: nucleic-acid assay
Nucleic Acid [7] = assay: Induction of DNA cleavage in supercoiled pGL2 DNA assessed as open circular DNA form-2 under hypoxic condition with NADPH:cytochrome P450 enzyme system at 25 uM after 16 hrs by agarose gel electrophoresis in presence of radical scavenging agent ethanol; type: nucleic-acid assay
Nucleic Acid [8] = assay: Induction of DNA cleavage in supercoiled pGL2 DNA assessed as open circular DNA form-2 under hypoxic condition with NADPH:cytochrome P450 enzyme system at 25 uM after 16 hrs by agarose gel electrophoresis in presence of radical scavenging agent DMSO; type: nucleic-acid assay
V79 [9] = assay: Cytotoxicity against chinese hamster V79 cells under anaerobic condition at 0.21 uM after 7 days by crystal violet staining; type: functional, Cricetulus griseus
V79 [10] = assay: Cytotoxicity against chinese hamster V79 cells under aerobic condition at 2.5 uM after 7 days by crystal violet staining; type: functional, Cricetulus griseus
V79 [11] = assay: Cytotoxicity against chinese hamster V79 cells under anaerobic condition at 2.0 uM after 7 days by crystal violet staining; type: functional, Cricetulus griseus
V79 [12] = assay: Cytotoxicity against chinese hamster V79 cells under aerobic condition at 30 uM after 7 days by crystal violet staining; type: functional, Cricetulus griseus

Activity (Nucleic Acid [1]): inactive
Activity (Nucleic Acid [2]): inactive
Activity (Nucleic Acid [4]): Active
Activity (Nucleic Acid [5]): inactive
Activity (Nucleic Acid [6]): Active
Activity (Nucleic Acid [7]): inactive
Activity (Nucleic Acid [8]): inactive
Structure (SMILES): O=C(c1cccs1)c1c(C(F)(F)F)[n+]([O-])c2ccc(Cl)cc2[n+]1[O-]
Ratio (V79 [3]): 16
Activity (V79 [9]): 99%
Activity (V79 [10]): 99%

Activity (Nucleic Acid [4]): inactive
Structure (SMILES): O=C(c1cccs1)c1nc2cc(Cl)ccc2[n+]([O-])c1C(F)(F)F

Structure (SMILES): Nc1n[n+]([O-])c2ccccc2[n+]1[O-] [TIRAPAZAMINE]
Ratio (V79 [3]): 75
Activity (V79 [11]): 99%
Activity (V79 [12]): 99%

Activity (Nucleic Acid [4]): inactive
Structure (SMILES): O=C(c1cccs1)c1c(C(F)(F)F)nc2ccc(Cl)cc2[n+]1[O-]
